Measurements published in US20040121316A1 (priority 2002, published 2004).
Where “and” joins values, the source holds several entries; their conditions need not be identical. Equal entries are not always repeated. Where two headings read alike, the source gives them in different places.

How the values were obtained:
[1] = target: T1, recombinant HIV-1 protease (Human immunodeficiency virus type 1 group M subtype B, UniProt P04585); assay: biochemical
T1 construct: Enzyme: recombinant HIV-1 protease expressed in E.Coli; purchased Bachem California, Inc. H-9040; host or cells: E. coli

mutant HIV-1 I84V/L90M = assay: Resistance Evaluation, I84V/L90M fold change; format: cell-based; set-up: scale not given here
[2] = tested on: wild-type HIV-1 strain IIIB; assay: microbe, parasite or virus in culture; format: cell-based; set-up: scale not given here
[3] = EC50 of mutant I84V/L90M relative to wild type, class symbols
[4] = Human immunodeficiency virus 1, IIIB

CCOC(=O)C(C)OP(=O)(Cc1ccc2c(c1)CCN(CC(NC(=O)OC1COC3OCCC13)C(O)CN(CC(C)C)S(=O)(=O)c1ccc(OC)cc1)C2)Oc1ccccc1 (stereo not shown)
Ki ([1]; Ki, class symbols, Table 10): 100 to 1000 pM | I84V/L90M fold change (mutant HIV-1 I84V/L90M; [3]): + (>3 to ≦10)

CCOC(=O)C(C)OP(=O)(COc1ccc2c(c1)CCN(CC(NC(=O)OC1COC3OCCC13)C(O)CN(CC(C)C)S(=O)(=O)c1ccc(OC)cc1)C2)Oc1ccccc1 (stereo not shown)
Ki ([1]; Ki, class symbols, Table 10): 100 to 1000 pM | I84V/L90M fold change (mutant HIV-1 I84V/L90M; [3]): + (>3 to ≦10)

CCOP(=O)(CCN1CCN(CC(NC(=O)OC2COC3OCCC23)C(O)CN(CC(C)C)S(=O)(=O)c2ccc(OC)cc2)CC1)OCC (stereo not shown)
Ki [1]: + +

COc1ccc(S(=O)(=O)N(CC(C)C)CC(O)C(CC2=CCN(CP(=O)(O)OC(C)C(=O)O)CC2)NC(=O)OC2COC3OCCC23)cc1 (stereo not shown)
Ki (pM) [1]: + + + | EC50 (nM) [2]: + + + | I84V/L90M fold change (mutant HIV-1 I84V/L90M; mutant I84V/L90M vs wild type): − (≦3)

CCOC(=O)C(C)OP(=O)(CCN1CC=C(CC(NC(=O)OC2COC3OCCC23)C(O)CN(CC(C)C)S(=O)(=O)c2ccc(OC)cc2)CC1)Oc1ccccc1 (stereo not shown)
Ki ([1]; read-out: Ki): > 1000 pM | EC50 (nM) [2]: + + + | I84V/L90M fold change (mutant HIV-1 I84V/L90M; mutant I84V/L90M vs wild type): − (≦3)

COc1ccc(S(=O)(=O)N(CC(C)C)CC(O)C(CN(C)Cc2ccc(P(=O)(O)OC(C)C(=O)O)cc2)NC(=O)OC2COC3OCCC23)cc1 (stereo not shown)
Ki (pM) [1]: + + | EC50 ([2]; read-out: EC50): 500 to 5000 nM | I84V/L90M fold change (mutant HIV-1 I84V/L90M; mutant I84V/L90M vs wild type): + + +

CCOC(=O)C(C)OP(=O)(Cc1ccc2c(c1)CCN(C[C@H](NC(=O)O[C@H]1CO[C@H]3OCC[C@H]31)[C@H](O)CN(CC(C)C)S(=O)(=O)c1ccc(OC)cc1)C2)Oc1ccccc1 (stereo partly shown)
Ki (pM) [1]: + + | EC50 (nM) [2]: + + | I84V/L90M fold change (mutant HIV-1 I84V/L90M; mutant I84V/L90M vs wild type): + +

COc1ccc(S(=O)(=O)N(CC(C)C)CC(O)C(Cc2ccc(NCP(=O)(O)O)cc2)NC(=O)OC2COC3OCCC23)cc1 (stereo not shown)
Ki ([1]; read-out: Ki): 100 to 1000 pM | EC50 (nM) [2]: + + | I84V/L90M fold change (mutant HIV-1 I84V/L90M; mutant I84V/L90M vs wild type): + (>3 to ≦10)

Cc1ccc(C(=O)N[C@@H](Cc2ccc(OCP(=O)(OCc3ccccc3)OCc3ccccc3)cc2)[C@H](O)CN(CC(C)C)S(=O)(=O)c2ccc(N)cc2)cc1O
Ki (pM) [1]: + +

CC(C)CN(CC(O)C(Cc1ccccc1)NC(=O)OC1COC2OCCC12)S(=O)(=O)c1ccc(OCP(=O)(O)Oc2ccccc2)cc1 (stereo not shown)
Ki (pM) [1]: + + | EC50 [2, 4]: > 5000 nM

COC(=O)N[C@H](C(=O)N[C@@H](Cc1ccccc1)[C@@H](O)CN(Cc1ccc(-c2ccccn2)cc1)NC(=O)[C@@H](NC(=O)OC)C(C)(C)C)C(C)(C)C [Atazanavir, reference compound]
Ki ([1]; Ki): 10 to 100 pM | EC50 [2, 4]: < 50 nM | I84V/L90M fold change (mutant HIV-1 I84V/L90M; [3]): +++ (>30)

COC(=O)C(C)NP(=O)(COc1ccc(CC(NC(=O)OC2COC3OCCC23)C(O)CN(CC(C)C)S(=O)(=O)c2ccc(OC)cc2)cc1)Oc1ccccc1 (stereo not shown) [Example 30a]
Ki ([1]; Ki, class symbols, Table 10): 10 to 100 pM | EC50 [2, 4]: < 50 nM | I84V/L90M fold change (mutant HIV-1 I84V/L90M; [3]): − (≦3)

CCOC(=O)C(C)NP(=O)(COc1ccc(CC(NC(=O)OC2COC3OCCC23)C(O)CN(CC(C)C)S(=O)(=O)c2ccc(OC)cc2)cc1)Oc1ccccc1 (stereo not shown) [Example 30b]
Ki ([1]; Ki, class symbols, Table 10): < 10 pM | EC50 [2, 4]: < 50 nM

COc1ccc(S(=O)(=O)N(CC(C)C)CC(O)C(Cc2ccc(OCP(=O)(NC(C)C(=O)OC(C)C)Oc3ccccc3)cc2)NC(=O)OC2COC3OCCC23)cc1 (stereo not shown) [Example 30c]
Ki ([1]; Ki, class symbols, Table 10): 10 to 100 pM and < 10 pM | I84V/L90M fold change (mutant HIV-1 I84V/L90M; [3]): − (≦3)

CCCCOC(=O)C(C)NP(=O)(COc1ccc(CC(NC(=O)OC2COC3OCCC23)C(O)CN(CC(C)C)S(=O)(=O)c2ccc(OC)cc2)cc1)Oc1ccccc1 (stereo not shown) [Example 30d]
Ki ([1]; Ki, class symbols, Table 10): 10 to 100 pM | EC50 [2, 4]: < 50 nM | I84V/L90M fold change (mutant HIV-1 I84V/L90M; [3]): − (≦3)

COc1ccc(S(=O)(=O)N(CC(C)C)CC(O)C(Cc2ccc(OCP(=O)(Oc3ccccc3)OC(C)C(=O)OC(C)C)cc2)NC(=O)OC2COC3OCCC23)cc1 (stereo not shown) [Example 31a]
Ki ([1]; Ki, class symbols, Table 10): 10 to 100 pM and < 10 pM | EC50 [2, 4]: < 50 nM | I84V/L90M fold change (mutant HIV-1 I84V/L90M; [3]): − (≦3)

CCCCOC(=O)C(C)OP(=O)(COc1ccc(CC(NC(=O)OC2COC3OCCC23)C(O)CN(CC(C)C)S(=O)(=O)c2ccc(OC)cc2)cc1)Oc1ccccc1 (stereo not shown) [Example 31c]
Ki ([1]; Ki, class symbols, Table 10): 10 to 100 pM | EC50 [2, 4]: 50 to 500 nM | I84V/L90M fold change (mutant HIV-1 I84V/L90M; [3]): − (≦3)

CCOC(=O)C(C)OP(=O)(COc1ccc(CC(NC(=O)OC2COC3OCCC23)C(O)CN(CC(C)C)S(=O)(=O)c2ccc(OC)cc2)cc1)Oc1ccccc1 (stereo not shown) [Example 31e]
Ki ([1]; Ki, class symbols, Table 10): < 10 pM | EC50 [2, 4]: < 50 nM

CC(C)CN(C[C@@H](O)[C@H](Cc1ccc(OCP(=O)(Oc2ccccc2)Oc2ccccc2)cc1)NC(=O)OC1CCOC1)S(=O)(=O)c1ccc(N)cc1 (stereo partly shown) [NH2, phenol]
Ki ([1]; read-out: Ki): 100 to 1000 pM | EC50 (nM) [2]: + + | I84V/L90M fold change (mutant HIV-1 I84V/L90M; mutant I84V/L90M vs wild type): − (≦3)

CC(C)CN(C[C@@H](O)[C@H](Cc1ccccc1)NC(=O)O[C@H]1CO[C@H]2OCC[C@H]21)S(=O)(=O)c1ccc(OCP(=O)(Oc2ccccc2)O[C@@H](C)C(=O)OC(C)C)cc1 (stereo partly shown) [OPh, Lac-iPr]
Ki ([1]; read-out: Ki): 100 to 1000 pM | EC50 ([2]; read-out: EC50): 500 to 5000 nM

CCOP(=O)(COc1ccc(CC(NC(=O)OC2COC3OCCC23)C(O)CN(CC(C)C)S(=O)(=O)c2ccc(OC)cc2)cc1)Oc1ccccc1 (stereo not shown) [drawing 608 R1=OEt R2=OPh]
Ki ([1]; Ki, class symbols, Table 10): < 10 pM | EC50 [2, 4]: < 50 nM

COc1ccc(S(=O)(=O)N(CC(C)C)CC(O)C(Cc2ccc(OCP(=O)(O)Oc3ccccc3)cc2)NC(=O)OC2COC3OCCC23)cc1 (stereo not shown) [drawing 608 R1=OH R2=OPh]
Ki ([1]; Ki, class symbols, Table 10): < 10 pM | EC50 [2, 4]: > 5000 nM

COc1ccc(S(=O)(=O)N(CC(C)C)CC(O)C(Cc2ccc(OCP(=O)(OC)Oc3ccccc3)cc2)NC(=O)OC2COC3OCCC23)cc1 (stereo not shown) [drawing 608 R1=OMe R2=OPh]
Ki ([1]; Ki, class symbols, Table 10): 10 to 100 pM | EC50 [2, 4]: < 50 nM

CCCCOC(=O)C(CC(C)C)NP(=O)(COc1ccc(CC(NC(=O)OC2COC3OCCC23)C(O)CN(CC(C)C)S(=O)(=O)c2ccc(OC)cc2)cc1)NC(CC(C)C)C(=O)OCCCC (stereo not shown) [drawing 612 R1=Leu-Bu R2=Leu-Bu]
EC50 [2, 4]: 50 to 500 nM | I84V/L90M fold change (mutant HIV-1 I84V/L90M; [3]): + (>3 to ≦10)

CCNP(=O)(COc1ccc(CC(NC(=O)OC2COC3OCCC23)C(O)CN(CC(C)C)S(=O)(=O)c2ccc(OC)cc2)cc1)NCC (stereo not shown) [drawing 612 R1=NHEt R2=NHEt]
EC50 [2, 4]: 50 to 500 nM | I84V/L90M fold change (mutant HIV-1 I84V/L90M; [3]): − (≦3)

CCOC(=O)C(NP(=O)(COc1ccc(CC(NC(=O)OC2COC3OCCC23)C(O)CN(CC(C)C)S(=O)(=O)c2ccc(OC)cc2)cc1)NC(C(=O)OCC)C(C)C)C(C)C (stereo not shown) [drawing 612 R1=Val-Et R2=Val-Et]
EC50 [2, 4]: < 50 nM | I84V/L90M fold change (mutant HIV-1 I84V/L90M; [3]): − (≦3)

CCOC(=O)C(C)OP(=O)(COc1ccc(CC(NC(=O)OC2COC3OCCC23)C(O)CN(CC(C)C)S(=O)(=O)c2ccc(OC)cc2)cc1)OC(C)C(=O)OCC (stereo not shown) [drawing 613 R1=Lac-Et R2=Lac-Et]
EC50 [2, 4]: 50 to 500 nM | I84V/L90M fold change (mutant HIV-1 I84V/L90M; [3]): − (≦3)

COc1ccc(S(=O)(=O)N(CC(C)C)CC(O)C(Cc2ccc(OCP(=O)(OC(C)C(=O)OC(C)C)OC(C)C(=O)OC(C)C)cc2)NC(=O)OC2COC3OCCC23)cc1 (stereo not shown) [drawing 613 R1=Lac-iPr R2=Lac-iPr]
EC50 [2, 4]: < 50 nM | I84V/L90M fold change (mutant HIV-1 I84V/L90M; [3]): − (≦3)

COc1ccc(S(=O)(=O)N(CC(C)C)CC(O)C(Cc2ccc(OCP(=O)(NC(C)C(=O)OC(C)C)Oc3ccccc3)cc2)NC(=O)OC2COC3OCCC23)cc1 (stereo not shown) [drawing 614 R1=OPh R2=Ala-iPr]
Ki ([1]; Ki, class symbols, Table 10): < 10 pM and 10 to 100 pM | EC50 [2, 4]: < 50 nM

COc1ccc(S(=O)(=O)N(CC(C)C)CC(O)C(Cc2ccc(OCP(=O)(O)OC(C)C(=O)O)cc2)NC(=O)OC2COC3OCCC23)cc1 (stereo not shown) [drawing 615 R1=OH R2=Lac-OH]
EC50 [2, 4]: 500 to 5000 nM | I84V/L90M fold change (mutant HIV-1 I84V/L90M; [3]): − (≦3)

CCOC(=O)C(C)OP(=O)(COc1ccc(CC(NC(=O)OC2COC3OCCC23)C(O)CN(CC(C)C)S(=O)(=O)c2ccc(OC)cc2)cc1)Oc1cccc(CN)c1 [drawing 617 R1=OPb-m-CH2NH2 R2=(S)Lac-Et]
Ki ([1]; Ki, class symbols, Table 10): 10 to 100 pM | EC50 [2, 4]: 50 to 500 nM

CCOP(=O)(CON=Cc1ccc(CC(NC(=O)OC2COC3OCCC23)C(O)CN(CC(C)C)S(=O)(=O)c2ccc(OC)cc2)cc1)OCC (stereo not shown) [drawing 621 R1=Et R2=Et]
EC50 [2]: + + + | I84V/L90M fold change (mutant HIV-1 I84V/L90M; [3]): − (≦3)

COc1ccc(S(=O)(=O)N(CC(C)C)CC(O)C(Cc2ccc(NCP(=O)(NC(C)C(=O)OC(C)C)Oc3ccccc3)cc2)NC(=O)OC2COC3OCCC23)cc1 (stereo not shown) [drawing 660]
Ki ([1]; class symbols, Table 10): + +

COc1ccc(S(=O)(=O)N(CC(C)C)CC(O)C(Cc2ccc(NCP(=O)(NC(C)C(=O)OC(C)C)Oc3ccccc3)cc2)NC(=O)OC2COC3OCCC23)cc1 (stereo not shown) [drawing 661]
Ki ([1]; class symbols, Table 10): + +

COc1ccc(S(=O)(=O)N(CC(C)C)CC(O)C(Cc2ccc(NCP(=O)(NC(C)C(=O)OC(C)C)Oc3ccccc3)cc2)NC(=O)OC2COC3OCCC23)cc1 (stereo not shown) [drawing 662]
Ki ([1]; class symbols, Table 10): + + +

CCCCOC(=O)C(C)OP(=O)(COc1ccc(CC(NC(=O)OC2COC3OCCC23)C(O)CN(CC(C)C)S(=O)(=O)c2cccc(N)c2)cc1)Oc1ccccc1 (stereo not shown) [drawing 719]
Ki ([1]; Ki (pM)): 100 to 1000 pM | I84V/L90M fold change (mutant HIV-1 I84V/L90M; mutant I84V/L90M vs wild type): − (≦3)

CCCCOC(=O)C(C)OP(=O)(COc1ccc(CC(NC(=O)OC2COC3OCCC23)C(O)CN(CC(C)C)S(=O)(=O)c2cccc(N)c2)cc1)Oc1ccccc1 (stereo not shown) [drawing 720]
Ki (pM) [1]: + +
